According to patent US3997598A, “Process for purifying sorbic acid” (Hoechst Aktiengesellschaft, priority 1973, dated 1976):
Values after ≈ are worked out from the molar mass of the structure shown. Where two headings read alike, the source gives them in different places.

Tests used:
physchem = details: 30% aqueous dipotassium hydrogen phosphate
[1] = 30% aqueous dipotassium hydrogen phosphate
[2] = cited from earlier work

Compound: C/C=C/C=C/C(=O)O [sorbic acid]
- solubility (physchem): 79 mg/mL (≈ 705 mM)
- solubility [1]: 15.1 grams per 100 ml of a salt sol
- solubility in water ([2]; 100° C): approximately 3%
- solubility in water ([2]; in words): low solubility
